Measured values published in PubChem BioAssay AID1996.
Values after ≈ are worked out from the molar mass of the structure shown.

Conditions: buffer; pH 7.4; 200.0 µM

Compound | solubility kinetic
COc1ccccc1CN(C)CC(=O)Nc1cccc2ccccc12 | 18.9 µg/mL (≈ 56.5 µM)
Cc1ccc2nc(N3CC(C)OC(C)C3)nc(-c3ccccc3)c2c1 (configuration not stated) | 2.2 µg/mL (≈ 6.6 µM)
Cc1ccc(F)cc1S(=O)(=O)NCc1ccc(N2CCN(C)CC2)cc1 | 16 µg/mL (≈ 42.4 µM)
Cc1ccnc(SCc2cn3c(C)cc(C)nc3n2)n1 | > 42.8 µg/mL
COC(=O)c1ccc(C(=O)N(Cc2ccccc2)c2ccccc2)cc1 | 10.7 µg/mL (≈ 31 µM)
CC(OC(=O)CNC(=O)C1CCCCC1)C(=O)NCc1ccccc1 (configuration not stated) | > 52 µg/mL
Cc1cccc(C)c1NC(=O)CN.Cl | > 32.2 µg/mL
CC(=O)c1c(-c2ccc(Cl)cc2Cl)noc1C | 17.5 µg/mL (≈ 64.8 µM)
CCCCCOC(=O)C1=C(C)NC(=O)NC1c1ccccc1 (configuration not stated) | 4.9 µg/mL (≈ 16.2 µM)
Cl.Clc1cc(I)cc(Cl)c1NC1=NCCN1 | > 58.9 µg/mL
CCCCSCCCNC(=O)Nc1ccc(CC)cc1 | 3.6 µg/mL (≈ 12.2 µM)
CC1(C)C/C(=N\O)C(C(O)c2cccc([N+](=O)[O-])c2)C(C)(C)N1 (configuration not stated) | 40.4 µg/mL (≈ 126 µM)
Cc1ccc(NC(=S)N2CC(C)OC(C)C2)cc1C (configuration not stated) | > 41.8 µg/mL
O=C(CNCc1ccc(F)cc1)Nc1ccccc1[N+](=O)[O-] | 32.7 µg/mL (≈ 108 µM)
O=S(=O)(c1cnc[nH]1)N1CCN(c2ccc(F)cc2)CC1 | 5.8 µg/mL (≈ 18.7 µM)
COc1ccc(Cl)cc1C(=O)OCC(=O)N1CCCC(C)C1 (configuration not stated) | > 48.9 µg/mL
CC(C)C(=O)Nc1c(-c2cccc(Cl)c2)c(=O)c2ccccc2n1C | 10.1 µg/mL (≈ 28.5 µM)
COc1cccc2c(=O)c3c([nH]c12)OC(C)(C)C3 | > 36.8 µg/mL
CC1CCN(C(=O)c2cc(-c3ccco3)on2)CC1 | 37.7 µg/mL (≈ 145 µM)
N#C/C(=C\c1ccccc1)c1ccccn1 | 8.6 µg/mL (≈ 41.7 µM)
OC(c1nnc(-c2ccccc2)o1)c1cccs1 (configuration not stated) | > 38.7 µg/mL
Cc1cc(C)c(C(N)=O)c(SCC(=O)c2cc(C)n(-c3cc(C)on3)c2C)n1 | 1.9 µg/mL (≈ 4.77 µM)
CCOc1cccc2sc(=NC(=O)c3ccco3)n(CC(=O)OC)c12 | 2 µg/mL (≈ 5.55 µM)
CC1(C)C(=O)Nc2ccccc2N1C(=O)COC(=O)c1cccs1 | 9.6 µg/mL (≈ 27.9 µM)

Compound | solubility kinetic
NC(=O)c1ccc(N2CCC(C(N)=O)CC2)c([N+](=O)[O-])c1 | 38.4 µg/mL (≈ 131 µM)
CCOC(=O)c1ccc(NC(=O)N2C[C@@H]3C[C@@H](C2)c2cccc(=O)n2C3)cc1 | > 57.2 µg/mL
Cc1cc(C)c(S(=O)(=O)c2ccc(F)cc2C)c(Cl)n1 | 36.8 µg/mL (≈ 117 µM)
COC(CNC(=O)c1coc2nc3ccccc3nc12)OC | 34.8 µg/mL (≈ 115 µM)
O=C(NC1CCCC1)C1CCN(C(=O)c2cccc(Cl)c2)CC1 | > 50.2 µg/mL
O=C(Nc1ccc2c(c1)OCO2)C1CC1 | > 30.8 µg/mL
Cc1nc(NC(=O)CSc2nncs2)c(Cl)cc1Cl | > 50.3 µg/mL
Cc1ccc(/C=C2\C(=O)NC(=S)N(c3ccc(F)cc3)C2=O)o1 | 45.9 µg/mL (≈ 139 µM)
O=S(=O)(Nc1ccc(-c2nc3cccnc3s2)cc1)c1ccccc1F | 0.8 µg/mL (≈ 2.08 µM)
CNC(=O)c1ccc(CNC(=O)OCc2ccccc2)cc1 | > 44.8 µg/mL
O=C(NC1CCCCC1)c1ccc(-c2cccc([N+](=O)[O-])c2)o1 | 2.8 µg/mL (≈ 8.91 µM)
CN(Cc1c(F)cccc1Cl)C(=O)C1=CC=CN2CCS(=O)(=O)N=C12 | > 57.6 µg/mL
CSc1ccccc1C(=O)NCc1ccccc1C | > 40.7 µg/mL
COc1ccc2c(c1)C(=O)C(=O)N2CC1COc2ccccc2O1 (configuration not stated) | 1.7 µg/mL (≈ 5.23 µM)
O=C(CSc1ccc(-c2ccncc2)nn1)N1CCCC1 | > 45.1 µg/mL
CC(=O)c1cccc(Nc2c([N+](=O)[O-])c(=O)oc3ccccc23)c1 | 0.9 µg/mL (≈ 2.78 µM)
O=S(=O)(c1ccc(-c2ccccc2)cc1)N1CCCC1 | 3 µg/mL (≈ 10.4 µM)
CCC1(C)SC(N)=NN1C(C)=O (configuration not stated) | > 28.1 µg/mL
Cc1ccc(C(=O)O)cc1NC(=O)CSc1nnc(-c2ccccc2F)n1C1CCCCC1 | > 70.3 µg/mL
CC(C)c1nc(NCCO)c(C#N)c2c1CCCC2 | 9 µg/mL (≈ 34.7 µM)
CC(=O)C1C(c2ccc(F)cc2)c2c(noc2C)CC1(C)O (configuration not stated) | > 45.5 µg/mL
O=S1(=O)CCN(OCc2ccc(Cl)cc2)CC1 | > 41.4 µg/mL
Nc1ncnc(N2CCc3ccccc32)c1[N+](=O)[O-] | 1.8 µg/mL (≈ 7 µM)
CC(C)CN1CCNC(=O)C1CC(=O)N(C)CC1CCOCC1 (configuration not stated) | 45.7 µg/mL (≈ 140 µM)

Compound | solubility kinetic
O=C(c1ccc(Cl)c(S(=O)(=O)N2CCOCC2)c1)N1CCc2ccccc2C1 | > 63.1 µg/mL
CC1(C)SC(=S)N(c2ccccc2)C1/[N+]([O-])=C/c1cccc([N+](=O)[O-])c1 (configuration not stated) | 6.2 µg/mL (≈ 16 µM)
COCCCNc1nc2nonc2nc1N(C)CC1CCCN1C (configuration not stated) | 43.5 µg/mL (≈ 130 µM)
CC(C)(C)NS(=O)(=O)c1ccc(NC(=O)CS(=O)(=O)Cc2ccccc2)cc1 | > 63.7 µg/mL
OC(CNc1nc(C(F)(F)F)nc2ccccc12)c1ccccc1 (configuration not stated) | 6.3 µg/mL (≈ 18.9 µM)
Cc1onc(-c2ccccc2)c1NC(=O)Nc1ccc(OC(F)F)cc1 | 7 µg/mL (≈ 19.5 µM)
Cn1ccnc1SCC(=O)NCC(=O)Nc1ccc(F)c(F)c1F | > 53.7 µg/mL
CCc1nnc(NC(=O)CS(=O)(=O)Cc2ccccc2)s1 | > 48.8 µg/mL
CC(C)(CCC(=S)N1CCOCC1)C1CCCCC1 | 4.1 µg/mL (≈ 14.5 µM)
CS(=O)(=O)N(CC(=O)NCCSCc1cccc(Cl)c1)c1ccc(F)cc1 | 38 µg/mL (≈ 88.2 µM)
Cn1c(=O)c2c(O)c([N+](=O)[O-])c(=O)n(C)c2n(C)c1=O | > 42.3 µg/mL
CCOc1ccc(C(=O)CCC(=O)N2CCN(c3ccccc3O)CC2)cc1 | 2.2 µg/mL (≈ 5.75 µM)
Cc1nc(OCC(C)C)c2sc3nc4c(cc3c2n1)COC(C)(C)C4 | 14.6 µg/mL (≈ 40.8 µM)
Cc1cccc(C)c1NC(=O)NC1(C(=O)NCc2ccncc2)CCCCC1 | > 57.1 µg/mL
CC(=O)Nc1ncc(Cc2ccc(Cl)cc2Cl)s1 | 1 µg/mL (≈ 3.32 µM)
CC(=O)Nc1ccc(S(=O)(=O)N(C)CC(=O)NNC(=O)Cc2nc3ccccc3n2C)cc1 | > 70.9 µg/mL
Cc1ccccc1Oc1nc(-c2ccccn2)nc2ccccc12 | 35 µg/mL (≈ 112 µM)
O=C(NC1CCS(=O)(=O)C1)c1sc2ccccc2c1Cl (configuration not stated) | 12.2 µg/mL (≈ 37 µM)
CN=C1S/C(=C\c2c(OC)cc(OC)cc2OC)C(=O)N1C | 1.1 µg/mL (≈ 3.41 µM)
O=C(NS(=O)(=O)c1ccccc1[N+](=O)[O-])c1ccccc1 | > 45.9 µg/mL
Cn1c(N)c(C(=O)COC(=O)Cc2cccs2)c(=O)n(C)c1=O | > 50.6 µg/mL
COc1ccc(CCNC(=O)COC(=O)c2ccccn2)cc1 | > 47.2 µg/mL
Cn1ccnc1SCC(=O)Nc1ccc2c(c1)OCO2 | > 43.7 µg/mL
COc1cc(N2C(=O)CSC2=S)cc(OC)c1OC | 41 µg/mL (≈ 137 µM)

Compound | solubility kinetic
O=C(O)c1cc2cc(Oc3ccccc3)ccc2[nH]1 | > 38 µg/mL
CN(C)c1ccc(C(=O)OCc2cc(=O)n3ccsc3n2)cc1 | 3.8 µg/mL (≈ 11.5 µM)
O=C(NCC(c1cccs1)N1CCOCC1)c1cc2ccccc2oc1=O (configuration not stated) | 10 µg/mL (≈ 26 µM)
COc1ccc(NC(=S)NC(=NS(=O)(=O)c2ccc(Cl)cc2)c2ccccc2)cc1 | 47.3 µg/mL (≈ 103 µM)
CCOc1cc(N2CCOCC2)c(OCC)cc1NC(=O)CSc1nnc(N)s1 | > 65.9 µg/mL
COc1ccc(CCNC(=O)Cc2cccs2)cc1OC | > 45.8 µg/mL
Cc1ccc(C)c(OCCC(=O)Nc2ccccc2C(=O)NC2CC2)c1 | 4.2 µg/mL (≈ 11.9 µM)
CCN(CCS(=O)(=O)c1ccc(Cl)cc1)Cc1nc2ccccc2c(=O)[nH]1 | > 60.9 µg/mL
C[N+](C)(C)CC(O)CC(=O)O.[Cl-] (configuration not stated) | > 29.6 µg/mL
O=S(=O)(c1ccc(F)cc1)N1CCN(c2ccc(F)cc2)CC1 | 0.5 µg/mL (≈ 1.48 µM)
COc1ccccc1Nc1nc(NCCC(C)C)nc(N)c1[N+](=O)[O-] | < 0.1 µg/mL
CC1CCN(S(=O)(=O)c2c[nH]c(=O)[nH]c2=O)CC1 | > 41 µg/mL
COc1cccc(CC(=O)Nc2ccccc2N2CCCC2)c1 | 43.9 µg/mL (≈ 141 µM)
CCOc1ccc(NC(=O)COc2ccc(S(=O)(=O)N3CCOCC3)cc2)cc1 | 2.9 µg/mL (≈ 6.9 µM)
Cc1nc(SCC(=O)NC2CCCCC2C)nc(C)c1C (configuration not stated) | > 46.1 µg/mL
COc1ccc(CCC(=O)Nc2ccc(C(=O)c3ccncc3)cc2)cc1 | 3.8 µg/mL (≈ 10.5 µM)
CC1CN(C(=O)COC(=O)c2cc(Cl)ccc2Cl)CC(C)O1 (configuration not stated) | > 51.9 µg/mL
Cc1cc(C)c(C)c(S(=O)(=O)N2CCSCC2)c1C | < 0.6 µg/mL
Cn1c(CNc2ccc(F)cc2)nc2ccccc21 | > 38.3 µg/mL
O=c1cc(-c2ccc(Cl)cc2)oc(=O)[nH]1 | > 33.5 µg/mL
O=C(O)c1ccc(Cl)c(S(=O)(=O)N2CCCC2)c1 | > 43.5 µg/mL
COc1cc(N(C)C)c([N+](=O)[O-])cc1C(=O)N1CCOCC1 | > 46.4 µg/mL
Nc1ccccc1-c1nc2ccccc2[nH]c1=O | 33.8 µg/mL (≈ 142 µM)
Cc1ccc2c(CN(C)Cc3cccc(Cl)c3)cc(=O)oc2c1C | < 0.7 µg/mL

Compound | solubility kinetic
Cc1cccc(C(=O)Nc2cccc3c2CCCC3)c1 | 0.8 µg/mL (≈ 3.01 µM)
CC1CN(C(=O)COC(=O)c2ccccc2O)CC(C)O1 (configuration not stated) | 40.1 µg/mL (≈ 137 µM)
CCOP(=O)(c1ccccc1)C(O)c1ccc([N+](=O)[O-])cc1 (configuration not stated) | > 48.2 µg/mL
CCn1c(=N)n(CC(O)COc2ccc(C)cc2)c2ccccc21.Cl (configuration not stated) | > 54.3 µg/mL
Cc1cccn2c(=O)c(C=O)c(N3CCC4(CC3)OCCO4)nc12 | > 49.4 µg/mL
O=C(NNC(=S)NC1CC2C=CC1C2)c1cccnc1 (configuration not stated) | > 43.3 µg/mL
O=[N+]([O-])c1ccc(C(O)C[n+]2ccccc2)cc1.[I-] (configuration not stated) | 52.1 µg/mL
O=c1c2ccccc2[nH]c(=S)n1CCN1CCCCC1 | > 43.4 µg/mL
Cc1occc1C(=O)Nc1ccc([N+](=O)[O-])cc1Br | 1.7 µg/mL (≈ 5.23 µM)
OCCCNc1nc(-c2ccccc2)nc2c1oc1ccccc12 | 1.3 µg/mL (≈ 4.07 µM)
CCN(c1ccccc1)S(=O)(=O)c1cccc(C(=O)Nc2ccc(C)cn2)c1 | 9.7 µg/mL (≈ 24.5 µM)
C=CCN1CN(CCc2ccccc2)CNC1=S | > 39.2 µg/mL
Cl.O=C(NCCCn1ccnc1)c1cc(Cl)cc(Cl)c1 | > 50.2 µg/mL
O=C(c1cc(S(=O)(=O)N2CCOCC2)ccc1F)N1CCc2ccccc21 | > 58.6 µg/mL
CC(C)Oc1ccc(C(=O)Nc2ccc3c(c2)n(C)c(=O)n3C)cc1 | 13.5 µg/mL (≈ 39.8 µM)
CSc1ccccc1NC(=O)c1ccc2c(c1)CCN2S(C)(=O)=O | 9.1 µg/mL (≈ 25.1 µM)
COc1cccc(-c2cc(-c3cccnc3)nc(N)c2C#N)c1 | 2.3 µg/mL (≈ 7.61 µM)
Brc1ccccc1OCCN1CCCC1 | 32 µg/mL (≈ 118 µM)
Cc1cccc(-c2nc(C#N)c(NCc3ccco3)o2)c1 | 1.9 µg/mL (≈ 6.8 µM)
O=C(/C=C/c1cccs1)NC1CCCC1 | > 33.2 µg/mL
Cn1c(Nc2ccccc2)nc2ccccc21 | 25.9 µg/mL (≈ 116 µM)
